Laboratory results: patent publication US20130338155A1, “METHOD FOR TREATING INFECTIONS” (SYNTA PHARMACEUTICALS CORP., priority 2006, published 2013)

Assays:
[1] = tested on: Her2; experiment: Degradation of Her2 in BT-474 cells (Method 1, Western blot); type: cell-based, Human; details: overnight, FIG. 2
Description: Human high-Her2 breast carcinoma BT474 (HTB-20), SK-BR-3 (HTB-30) and MCF-7 breast carcinoma (HTB-22) from American Type Culture Collection, Va., USA were grown in Dulbecco's modified Eagle's medium with 4 mM L-glutamine and antibiotics (100 IU/ml penicillin and 100 ug/ml streptomycine; GibcoBRL). To obtain exponential cell growth, cells were trypsinized, counted and seeded at a cell density of 0.5×10^6 cells/ml regularly, every 3 days. All experiments were performed on day 1 after cell passage.
BT-474 cells were treated with 0.5 μM, 2 μM, or 5 μM of 17AAG (a positive control) or 0.5 μM, 2 μM, or 5 μM of Compound 108 or Compound 49 overnight in DMEM medium. After treatment, each cytoplasmic sample was prepared from 1×10^6 cells by incubation of cell lysis buffer (#9803, cell Signaling Technology) on ice for 10 minutes. The resulting supernatant used as the cytosol fractions were dissolved with sample buffer for SDS-PAGE and run on a SDS-PAGE gel, blotted onto a nitrocellulose membrane by using semi-dry transfer. Non-specific binding to nitrocellulose was blocked with 5% skim milk in TBS with 0.5% Tween at room temperature for 1 hour, then probed with anti-Her2/ErB2 mAb (rabbit IgG, #2242, Cell Signaling) and anti-Tubulin (T9026, Sigma) as, housekeeping control protein. HRP-conjugated goat anti-rabbit IgG (H+L) and HRP-conjugated horse anti-mouse IgG (H+L) were used as secondary Ab (#7074, #7076, Cell Signaling) and LumiGLO reagent, 20× Peroxide (#7003, Cell Signaling) was used for visualization.

[2] = tested on: Hsp90 protein; experiment: Malachite Green Assay of ATPase activity of Hsp90 protein; type: biochemical; details: 37° C. for 4 hours, FIG. 1
Description: Hsp90 protein was obtained from Stressgen (Cat#SPP-770). Assay buffer: 100 mM Tris-HCl, Ph7.4, 20 mM KCl, 6 mM MgCl2. […] Malachite green reagent was added to the reaction. […] The plate was read by an ELISA reader with an absorbance at 620 nm.

SMILES	degradation of Her2 ([1]; 0.5 μM)	degradation of Her2 ([1]; 2 μM)	degradation of Her2 ([1]; 5 μM)	inhibition of ATPase activity of Hsp90 ([2]; 4 μM)	inhibition of ATPase activity of Hsp90 ([2]; 40 μM)
CCc1cc(-c2nnc(S)n2-c2cccc3ccccc23)c(O)cc1O [Compound 49, 3-(2,4-Dihydroxy-5-ethyl-phenyl)-4-(naphthalen-1-yl)-5-mercapto-triazole]	partial degradated	complete degradation	complete degradation	–	–
Oc1ccc(-c2nnc(S)n2-c2cccc3ccccc23)c(O)c1 [Compound 108, 3-(2,4-Dihydroxy-phenyl)-4-(naphthalen-1-yl)-5-mercapto-triazole]	partially degradated	partially degradated	almost completely degraded	significant inhibition	even greater inhibition of ATPase activity of Hsp90 than geldanamycin
